According to patent US20240150340A1, “CDK Inhibitors And Their Use As Pharmaceuticals” (Prelude Therapeutics Incorporated, priority 2022, published 2024):

Assays:
CDK2/Cyclin E2 = biological target: T1, CDK2/Cyclin E2 (Homo sapiens, UniProt P24941); assay: CDK2/CyclinE2 Enzymatic Activity Assay (TR-FRET); type: biochemical; details: ATP 1 mM final, read-out: CDK2_E1 IC50
T1 construct: Recombinant protein complex CDK2/Cyclin E2, expressed from insect cell, was purchased from ProQinase
Outline: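 Recombinant insect-cell CDK2/Cyclin E2 (1 nM) phosphorylated ULight-4E-BP1 (50 nM) with 1 mM ATP in HEPES pH 7.4 buffer, after 20 min compound preincubation; MgCl2 (10 mM) started the 45 min reaction at 37° C. Europium anti-phospho-4E-BP1 TR-FRET read; 9-dose IC50 by 4-parameter fit.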

CDK4/Cyclin D1 = biological target: T2, CDK4/Cyclin D1 (Homo sapiens, UniProt P11802); assay: CDK4/CyclinD1 Enzymatic Activity Assay (TR-FRET); type: biochemical; details: ATP 2 mM final, read-out: CDK4_D1 IC50
T2 construct: purchased ProQinase; host or cells: insect cell
Outline: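 Insect-cell-expressed CDK4/Cyclin D1 (1 nM) with ULight-4E-BP1 (100 nM) and 2 mM ATP in HEPES pH 7.4; 9-dose 3-fold compound series preincubated 20 min, reaction started with 10 mM MgCl2, 45 min at 37° C. Europium anti-P-4E-BP1 TR-FRET read; IC50 from 4-parameter Hill fit.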

OVCAR3 p-RB = assay: pRB ICW Assay in OVCAR3 Cells; type: cell-based; details: Homo sapiens, OVCAR-3, incubated with compound for 2 hours
Outline: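 In-Cell Western on OVCAR3: phospho-RB antibody signal with DRAQ5 counterstain read at 700 and 800 nm after fixation. Compounds were applied for 2 h at 37° C. as 9-point ½-log dilutions in duplicate; 10 μM reference compound defined full inhibition.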

T2 sequence (P11802 whole entry): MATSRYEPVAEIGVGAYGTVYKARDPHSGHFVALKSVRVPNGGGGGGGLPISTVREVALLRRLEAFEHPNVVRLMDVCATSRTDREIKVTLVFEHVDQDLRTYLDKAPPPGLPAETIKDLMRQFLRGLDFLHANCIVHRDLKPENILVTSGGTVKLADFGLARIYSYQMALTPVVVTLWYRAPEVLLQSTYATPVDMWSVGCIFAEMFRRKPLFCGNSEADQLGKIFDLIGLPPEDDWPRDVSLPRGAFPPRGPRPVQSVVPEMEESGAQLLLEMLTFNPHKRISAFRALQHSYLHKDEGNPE
T2 sequence (P24385 whole entry partner): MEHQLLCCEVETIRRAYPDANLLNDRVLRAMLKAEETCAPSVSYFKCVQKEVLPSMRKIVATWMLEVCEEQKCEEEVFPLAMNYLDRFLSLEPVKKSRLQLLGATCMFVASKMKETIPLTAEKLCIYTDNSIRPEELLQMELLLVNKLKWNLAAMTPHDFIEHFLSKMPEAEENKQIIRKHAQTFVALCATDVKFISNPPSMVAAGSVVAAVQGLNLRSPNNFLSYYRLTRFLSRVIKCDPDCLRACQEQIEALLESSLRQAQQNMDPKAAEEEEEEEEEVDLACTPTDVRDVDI

Structure (SMILES) | IC50 (CDK2/Cyclin E2) [nM] | IC50 (CDK4/Cyclin D1) [nM] | IC50 (OVCAR3 p-RB) [nM]
Cc1sc(-c2nc(NC3CCN(S(=O)(=O)c4c[nH]cn4)CC3)ncc2C(F)(F)F)cc1C#N [Example 55, 5-(2-((1-((1H-imidazol-4-yl)sulfonyl)piperidin-4-yl)amino)-5-(trifluoromethyl)pyrimidin-4-yl)-2-methylthiophene-3-carbonitrile] | ≤ 100 | ≤ 100 | 100 to 500
CC(O)c1cnc(-c2nc(NC3CCN(S(=O)(=O)c4cn[nH]c4)CC3)ncc2C(F)(F)F)s1 (stereo not drawn) [Example 56, 1-(2-(2-((1-((1H-pyrazol-4-yl)sulfonyl)piperidin-4-yl)amino)-5-(trifluoromethyl)pyrimidin-4-yl)thiazol-5-yl)ethan-1-ol] | ≤ 100 | ≤ 100 | ≤ 100
CC(O)c1cnc(-c2nc(NC3CCN(S(=O)(=O)c4c[nH]cn4)CC3)ncc2C(F)(F)F)s1 (stereo not drawn) [Example 57, 1-(2-(2-((1-((1H-imidazol-4-yl)sulfonyl)piperidin-4-yl)amino)-5-(trifluoromethyl)pyrimidin-4-yl)thiazol-5-yl)ethan-1-ol] | ≤ 100 | ≤ 100 | ≤ 100
Cn1cc(S(=O)(=O)N2CCC(Nc3ncc(C(F)(F)F)c(-c4nccs4)n3)CC2)cn1 [Example 58, N-(1-((1-methyl-1H-pyrazol-4-yl)sulfonyl)piperidin-4-yl)-4-(thiazol-2-yl)-5-(trifluoromethyl)pyrimidin-2-amine] | ≤ 100 | ≤ 100 | 100 to 500
Cn1cnc(S(=O)(=O)N2CCC(Nc3ncc(C(F)(F)F)c(-c4nccs4)n3)CC2)c1 [Example 59, N-(1-((1-methyl-1H-imidazol-4-yl)sulfonyl)piperidin-4-yl)-4-(thiazol-2-yl)-5-(trifluoromethyl)pyrimidin-2-amine] | ≤ 100 | ≤ 100 | ≤ 100
Cn1cnc(S(=O)(=O)N2CCC(Nc3ncc(C(F)(F)F)c(-c4ncc(C(O)C(F)(F)F)s4)n3)CC2)c1 (stereo not drawn) [Example 60, 2,2,2-trifluoro-1-(2-(2-((1-((1-methyl-1H-imidazol-4-yl)sulfonyl)piperidin-4-yl)amino)-5-(trifluoromethyl)pyrimidin-4-yl)thiazol-5-yl)ethan-1-ol] | ≤ 100 | ≤ 100 | ≤ 100
Cn1cc(S(=O)(=O)N2CCC(Nc3ncc(C(F)(F)F)c(-c4ncc(C(O)C(F)(F)F)s4)n3)CC2)cn1 (stereo not drawn) [Example 61, 2,2,2-trifluoro-1-(2-(2-((1-((1-methyl-1H-pyrazol-4-yl)sulfonyl)piperidin-4-yl)amino)-5-(trifluoromethyl)pyrimidin-4-yl)thiazol-5-yl)ethan-1-ol] | ≤ 100 | ≤ 100 | ≤ 100
Cn1cc(S(=O)(=O)N2CCC(Nc3ncc(C(F)(F)F)c(-c4ncc(CC(C)(C)O)s4)n3)CC2)cn1 [Example 62, 2-methyl-1-(2-(2-((1-((1-methyl-1H-pyrazol-4-yl)sulfonyl)piperidin-4-yl)amino)-5-(trifluoromethyl)pyrimidin-4-yl)thiazol-5-yl)propan-2-ol] | ≤ 100 | ≤ 100 | ≤ 100
CC(O)c1cnc(-c2nc(NC3CCN(S(=O)(=O)c4cn(C)cn4)CC3)ncc2C(F)(F)F)s1 (stereo not drawn) [Example 63, 1-(2-(2-((1-((1-methyl-1H-imidazol-4-yl)sulfonyl)piperidin-4-yl)amino)-5-(trifluoromethyl)pyrimidin-4-yl)thiazol-5-yl)ethan-1-ol] | ≤ 100 | ≤ 100 | ≤ 100
Cc1cnc(-c2nc(N[C@H]3CCN(S(=O)(=O)c4cn(C)cn4)C[C@H]3C)ncc2C(F)(F)F)s1 [Example 64, N-((3R,4S)-3-methyl-1-((1-methyl-1H-imidazol-4-yl)sulfonyl)piperidin-4-yl)-4-(5-methylthiazol-2-yl)-5-(trifluoromethyl)pyrimidin-2-amine] | ≤ 100 | 100 to 500 | > 500
Cc1cnc(-c2nc(NC3CCN(S(C)(=O)=O)CC3)ncc2C(F)(F)F)s1 [Example 65, N-(1-(methylsulfonyl)piperidin-4-yl)-4-(5-methylthiazol-2-yl)-5-(trifluoromethyl)pyrimidin-2-amine] | ≤ 100 | ≤ 100 | 100 to 500
Cn1cnc(S(=O)(=O)N2CC[C@@H](Nc3ncc(C(F)(F)F)c(-c4cc(C(N)=O)ns4)n3)[C@H](F)C2)c1 [Example 66, 5-(2-(((3R,4R)-3-fluoro-1-((1-methyl-1H-imidazol-4-yl)sulfonyl)piperidin-4-yl)amino)-5-(trifluoromethyl)pyrimidin-4-yl)isothiazole-3-carboxamide] | ≤ 100 | ≤ 100 | ≤ 100
Cn1cnc(S(=O)(=O)N2CC[C@H](Nc3ncc(C(F)(F)F)c(-c4cc(C(N)=O)ns4)n3)[C@H](F)C2)c1 [Example 67, 5-(2-(((3R,4S)-3-fluoro-1-((1-methyl-1H-imidazol-4-yl)sulfonyl)piperidin-4-yl)amino)-5-(trifluoromethyl)pyrimidin-4-yl)isothiazole-3-carboxamide] | ≤ 100 | ≤ 100 | ≤ 100
CC(O)c1sc(-c2nc(N[C@H]3CCN(S(=O)(=O)c4c[nH]cn4)C[C@H]3C)ncc2C(F)(F)F)cc1C#N (stereo partly drawn) [Example 68, 5-(2-(((3R,4S)-1-((1H-imidazol-4-yl)sulfonyl)-3-methylpiperidin-4-yl)amino)-5-(trifluoromethyl)pyrimidin-4-yl)-2-(1-hydroxyethyl)thiophene-3-carbonitrile] | ≤ 100 | 100 to 500 | 100 to 500
Cn1cc(S(=O)(=O)N2CCC(Nc3ncc(C(F)(F)F)c(-c4cc(C#N)cs4)n3)CC2)cn1 [Example 69, 5-(2-((1-((1-Methyl-1H-pyrazol-4-yl)sulfonyl)piperidin-4-yl)amino)-5-(trifluoromethyl)pyrimidin-4-yl)thiophene-3-carbonitrile] | ≤ 100 | 100 to 500 | ≤ 100
Cc1sc(-c2nc(NC3CCN(S(C)(=O)=O)CC3)ncc2C(F)(F)F)cc1C(N)=O [Example 70, 2-methyl-5-(2-((1-(methylsulfonyl)piperidin-4-yl)amino)-5-(trifluoromethyl)pyrimidin-4-yl)thiophene-3-carboxamide] | ≤ 100 | ≤ 100 | ≤ 100
Cc1sc(-c2nc(NC3CCN(S(=O)(=O)c4cnn(C)c4)CC3)ncc2C(F)(F)F)cc1C(N)=O [Example 71, 2-methyl-5-(2-((1-((1-methyl-1H-pyrazol-4-yl)sulfonyl)piperidin-4-yl)amino)-5-(trifluoromethyl)pyrimidin-4-yl)thiophene-3-carboxamide] | ≤ 100 | ≤ 100 | ≤ 100
Cc1sc(-c2nc(NC3CCN(S(=O)(=O)c4cnn(C)c4)CC3)ncc2C(F)(F)F)cc1C#N [Example 72, 2-methyl-5-(2-((1-((1-methyl-1H-pyrazol-4-yl)sulfonyl)piperidin-4-yl)amino)-5-(trifluoromethyl)pyrimidin-4-yl)thiophene-3-carbonitrile] | ≤ 100 | ≤ 100 | ≤ 100
CS(=O)(=O)N1CCC(Nc2ncc(C(F)(F)F)c(-c3cc(C(N)=O)cs3)n2)CC1 [Example 73, 5-(2-((1-(methylsulfonyl)piperidin-4-yl)amino)-5-(trifluoromethyl)pyrimidin-4-yl)thiophene-3-carboxamide] | ≤ 100 | ≤ 100 | ≤ 100
Cn1cc(S(=O)(=O)N2CCC(Nc3ncc(C(F)(F)F)c(-c4cc(C(N)=O)cs4)n3)CC2)cn1 [Example 74, 5-(2-((1-((1-methyl-1H-pyrazol-4-yl)sulfonyl)piperidin-4-yl)amino)-5-(trifluoromethyl)pyrimidin-4-yl)thiophene-3-carboxamide] | ≤ 100 | ≤ 100 | ≤ 100
COc1cc(-c2nc(NC3CCN(S(=O)(=O)c4cn(C)cn4)CC3)ncc2C(F)(F)F)sc1C [Example 75, 4-(4-methoxy-5-methylthiophen-2-yl)-N-(1-((1-methyl-1H-imidazol-4-yl)sulfonyl)piperidin-4-yl)-5-(trifluoromethyl)pyrimidin-2-amine] | ≤ 100 | > 500 | > 500
COc1cc(-c2nc(NC3CCN(S(C)(=O)=O)CC3)ncc2C(F)(F)F)sc1C [Example 76, 4-(4-methoxy-5-methylthiophen-2-yl)-N-(1-(methylsulfonyl)piperidin-4-yl)-5-(trifluoromethyl)pyrimidin-2-amine] | 100 to 500 | 100 to 500 | > 500
Cc1cc(-c2nc(NC3CCN(S(=O)(=O)c4cnn(C)c4)CC3)ncc2C(F)(F)F)sn1 [Example 77, N-(1-((1-methyl-1H-pyrazol-4-yl)sulfonyl)piperidin-4-yl)-4-(3-methylisothiazol-5-yl)-5-(trifluoromethyl)pyrimidin-2-amine] | ≤ 100 | > 500 | > 500
Cc1cc(-c2nc(NC3CCN(S(C)(=O)=O)CC3)ncc2C(F)(F)F)sn1 [Example 78, 4-(3-methylisothiazol-5-yl)-N-(1-(methylsulfonyl)piperidin-4-yl)-5-(trifluoromethyl)pyrimidin-2-amine] | 100 to 500 | > 500 | > 500
